Source: PMC10362908 (2023)

Assays:
Conditions in all cases: Na+ 10 mM; Mg2+ carried over from 12 mM annealing buffer; 5 mM TRIS pH 7.0, 20 °C; 0.5 µM DNA, 160 µM PIC; super aggregate
[1] = system: AT + AF (DX-tile) (DNA, junction, amino modifier C6 dT at 19 of strand 5) TCAGAAGAACAAAAAAAAAA/ACGCATTTGTCGTTCTTCTGATGACCTTGCA/GTACACCTCGCTTTTTTTTTTGTGTCTGCAA/TTGCAGACACGACAAATGCGT/TGCAAGGTCCGCGAGGTGTAC; assay: absorbance (580 nm aggregate peak, AF red shift)
[2] = system: GC + AF (DX-tile) (DNA, junction, amino modifier C6 dT at 19 of strand 5) TCAGAAGAACGCGCGCGCGC/ACGCATTTGTCGTTCTTCTGATGACCTTGCA/GTACACCTCGAGCGCGCGCGCTTGTCTGCAA/TTGCAGACAAGACAAATGCGT/TGCAAGGTCCGCGAGGTGTAC; assay: absorbance (580 nm aggregate peak, AF red shift)
[3] = system: dsDNA + AF (DNA, duplex, amino modifier C6 dT at 19 of strand 1) TGCAAGGTCCGCGAGGTGTAC/GTACACCTCGCGGACCTTGCA; assay: absorbance (580 nm aggregate peak, AF red shift)
[4] = system: ssDNA + AF (Strand 5-AF) (DNA, single strand, amino modifier C6 dT at 19) TGCAAGGTCCGCGAGGTGTAC; assay: absorbance (580 nm aggregate peak, AF red shift)
[5] = system: AT (DX-tile) (DNA, junction) TCAGAAGAACAAAAAAAAAA/ACGCATTTGTCGTTCTTCTGATGACCTTGCA/GTACACCTCGCTTTTTTTTTTGTGTCTGCAA/TTGCAGACACGACAAATGCGT/TGCAAGGTCCGCGAGGTGTAC; assay: fluorescence emission (523 nm excitation), aggregate formation
[6] = system: GC (DX-tile) (DNA, junction) TCAGAAGAACGCGCGCGCGC/ACGCATTTGTCGTTCTTCTGATGACCTTGCA/GTACACCTCGAGCGCGCGCGCTTGTCTGCAA/TTGCAGACAAGACAAATGCGT/TGCAAGGTCCGCGAGGTGTAC; assay: as above
[7] = system: dsDNA (DNA, duplex) TGCAAGGTCCGCGAGGTGTAC/GTACACCTCGCGGACCTTGCA; assay: as above
[8] = system: ssDNA (DNA, single strand) TGCAAGGTCCGCGAGGTGTAC; assay: as above

Measured: binding

CCN1C(=Cc2ccc3ccccc3[n+]2CC)C=Cc2ccccc21
yes: [1] | [2] | [3] | [4] | [5] | [6] | [7] | [8]
